From patent publication US9233982B2, “Spiro tetrahydro—benzothiophen derivatives useful for the treatment neurodegenerative diseases” (Ares Trading S.A., priority 2012, dated 2016) come the findings set out here.

Structures are written as SMILES. Structures can show the parent of a compound that is named as a salt.

Assay [1] addresses T1, BACE-1 (Homo sapiens, UniProt P56817). Nature of the assay: HTRF cell based assay, Aβ1-40 peptide secreted by recombinant HEK293 cells. Details: endogenous in cells; host or cells: recombinant HEK293 cells engineered to over-produce APP. The note with it: for EC50: Aβ1-40 secretion, recombinant HEK293 cells producing APP, overnight treatment, read-out: Cellular assay EC50 Ranges. Here is the method: The cell based assay used to support the program utilized HTRF assay reagents from Cisbio (Catalogue number 62B40PEB) to quantify the amount of Aβ1-40 peptide secreted by recombinant HEK293 cells. The cells were engineered to produce high quantities of APP, the precursor for Aβ1-40 peptide, under hygromycin selection pressure. Briefly, cells were plated into 384-well microplates and allowed to settle for 2 hours prior to compound addition. Following overnight treatment with compound, the media containing secreted peptide was transferred into a low volume assay plate for quantification with HTRF immunoassay reagents. Adhering to the manufacturers protocol for quantification, a TR-FRET signal is obtained in the presence of the Aβ1-40 peptide following addition of a cryptate conjugated antibody and an XL665 conjugated antibody, each raised to a different epitope of the Aβ1-40 peptide. A low FRET signal is obtained when cells are treated with compounds that inhibit APP cleavage and peptide secretion.
Background: In TR-FRET formats the signal depends on donor and acceptor labels being close together.

The target in assay [2] is T1, BACE-1. Nature of the assay: LanthaScreen BACE1 biochemical assay (TR-FRET).
Description: Biochemical Assay to Assess Compounds for Inhibition of BACE-1
The LanthaScreen™ BACE1 assay kit from Invitrogen (Catalogue number PV4748) was used as the primary assay in the screening cascade.
Briefly, the test compound was incubated with the enzyme and substrate for 1 hour at room temperature in a reaction volume of 15 μl and then 5 nM terbium labelled anti-biotin antibody was added to stop the reaction and the solution incubated for a further 1 hour at room temperature. The microplate was read on an Envision plate reader fitted with a photometric 340 nm excitation filter and the amount of substrate that had been cleaved was represented by the TR-FRET ratio, calculated by dividing the Fluorescein emission signal (520 nm) by the Terbium emission signal (495 nm).

T1 sequence (P56817 46-501): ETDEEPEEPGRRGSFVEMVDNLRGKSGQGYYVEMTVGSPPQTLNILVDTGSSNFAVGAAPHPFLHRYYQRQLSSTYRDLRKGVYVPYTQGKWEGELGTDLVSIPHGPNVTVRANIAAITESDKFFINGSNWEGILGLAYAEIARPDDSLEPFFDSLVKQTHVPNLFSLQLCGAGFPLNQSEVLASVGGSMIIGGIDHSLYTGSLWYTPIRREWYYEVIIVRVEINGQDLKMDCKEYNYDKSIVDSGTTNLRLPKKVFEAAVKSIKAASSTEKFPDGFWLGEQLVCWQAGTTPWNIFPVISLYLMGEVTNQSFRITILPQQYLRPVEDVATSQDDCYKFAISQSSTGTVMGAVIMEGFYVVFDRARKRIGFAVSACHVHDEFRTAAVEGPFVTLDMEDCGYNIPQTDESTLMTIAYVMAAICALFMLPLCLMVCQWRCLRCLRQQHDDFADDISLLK

As usually defined, the EC50 is the concentration giving half of the maximal effect. In general, IC50 refers to the concentration needed to halve the response being measured. For `NC1=NC2(CCS1)CC(c1ccccc1)Cc1sc(-c3cccc(Br)c3)cc12` (racemic) [Example 43], the EC50 at BACE-1 [1] was in the range of 5 to 50 µM. In addition, the IC50 on BACE-1 [2] was in the range of 5 to 65 µM.
Take `COc1ccc(-c2cccc(-c3cc4c(s3)CC(c3ccccc3)CC43CCSC(N)=N3)c2)cc1` (racemic) [Example 44]: on BACE-1 [1], the EC50 was in the range of 5 to 50 µM. Moreover, on BACE-1 [2], the IC50 was in the range of 1 to 5 µM.
Take `COCC1Cc2sc(-c3cccc(C#N)c3)cc2C2(CCSC(N)=N2)C1` (racemic) [Example 45, 3-(2′-amino-6-(methoxymethyl)-5′,6,6′,7-tetrahydro-5H-spiro[benzo[b]thiophene-4,4′-[1,3]thiazine]-2-yl)benzonitrile, Hydrochloride Salt]: the EC50 on BACE-1 [1] was in the range of 1 to 5 µM. Further, the IC50 on BACE-1 [2] was in the range of 5 to 65 µM.
On the same counts, the results for `N#Cc1cccc(-c2cc3c(s2)CCC(Cc2ccccc2)C32CCSC(N)=N2)c1` (racemic) [Example 47, 3-(2′-amino-5-benzyl-5′,6,6′,7-tetrahydro-5H-spiro[benzo[b]thiophene-4,4′-[1,3]thiazine]-2-yl)benzonitrile] are 1 to 5 µM and 5 to 65 µM.
As for `COc1ccc(CC2CCc3sc(-c4cccc(C#N)c4)cc3C23CCSC(N)=N3)cc1` (racemic) [Example 48], the EC50 on BACE-1 [1] lay in the range of 5 to 50 µM. The molecule also gave an IC50 against BACE-1 [2] of 1 to 5 µM.
On the same counts, the results for `CN1C(=O)[C@]2(CCCc3sc(-c4cccc(C#N)c4)cc32)N=C1N` (single isomer, unassigned) [Example 50] are 1 to 5 µM and 5 to 65 µM.
For the molecule `CN1C(=O)[C@@]2(CCCc3sc(-c4cccc(C#N)c4)cc32)N=C1N` (single isomer, unassigned) [Example 51], on BACE-1 [1], the EC50 is at most 1 µM. The molecule further showed an IC50 at BACE-1 [2] below 1 µM.
Turning to `N#Cc1cccc(-c2cc3c(s2)CCCC32CCSC(N)=N2)c1` (stereo in doubt) [Example 2, (R)-3-(2′-amino-5′,6,6′,7-tetrahydro-5H-spiro[benzo[b]thiophene-4,4′-[1,3]thiazine]-2-yl)benzonitrile], the EC50 on BACE-1 [1] is at most 1 µM. The IC50 at BACE-1 [2] was below 1 µM.
On the same counts, the results for `N#Cc1cccc(-c2cc3c(s2)CCCC32CCSC(N)=N2)c1` (stereo not drawn) [Example 1, 3-(2′-amino-5′,6,6′,7-tetrahydro-5H-spiro[benzo[b]thiophene-4,4′-[1,3]thiazine]-2-yl)benzonitrile, Formate Salt] are at most 1 µM and 1 to 5 µM.
On the same counts, the results for `NC1=NC2(CCCc3sc(-c4ccc(F)cc4)cc32)CCS1` (stereo not drawn) [Example 3] are 5 to 50 µM and 5 to 65 µM.
For `NC1=NC2(CCCc3sc(-c4cccnc4)cc32)CCS1` (stereo not drawn) [Example 4], the EC50 on BACE-1 [1] was 5 to 50 µM. On BACE-1 [2], the IC50 was in the range of 5 to 65 µM.
On the same counts, the results for `COc1ccc(-c2cc3c(s2)CCCC32CCSC(N)=N2)cn1` (stereo not drawn) [Example 5] are 5 to 50 µM and 5 to 65 µM.
On the same counts, the results for `NC1=NC2(CCCc3sc(-c4ccc5c(c4)CCO5)cc32)CCS1` (stereo not drawn) [Example 6] are 5 to 50 µM and 5 to 65 µM.
`NC1=NC2(CCCc3sc(-c4cncnc4)cc32)CCS1` (stereo not drawn) [Example 7]: at BACE-1 [1], the EC50 is 5 to 50 µM. Further, the IC50 on BACE-1 [2] was in the range of 5 to 65 µM.
On to `NC1=NC2(CCCc3sc(-c4ccc5c(c4)OCO5)cc32)CCS1` (stereo not drawn) [Example 8], for which the EC50 at BACE-1 [1] fell in the range of 5 to 50 µM. At BACE-1 [2], this molecule yielded an IC50 of 5 to 65 µM.
On the same counts, the results for `CS(=O)(=O)c1cccc(-c2cc3c(s2)CCCC32CCSC(N)=N2)c1` (stereo not drawn) [Example 9] are 1 to 5 µM and 5 to 65 µM.
On the same counts, the results for `COc1ccc(C#N)cc1-c1cc2c(s1)CCCC21CCSC(N)=N1` (stereo not drawn) [Example 10] are at most 1 µM and 1 to 5 µM.
Take `COc1cc(C#N)cc(-c2cc3c(s2)CCCC32CCSC(N)=N2)c1F` (stereo not drawn) [Example 11]: at BACE-1 [1], the EC50 lay within 1 to 5 µM. Also, at BACE-1 [2], the IC50 lay within 5 to 65 µM.
For `N#Cc1cc(F)cc(-c2cc3c(s2)CCCC32CCSC(N)=N2)c1` (stereo not drawn) [Example 12], the EC50 at BACE-1 [1] was in the range of 1 to 5 µM. Also, the IC50 against BACE-1 [2] lay within 5 to 65 µM.
Take `COC(=O)c1cccc(-c2cc3c(s2)CCCC32CCSC(N)=N2)c1` (stereo not drawn) [Example 13]: the EC50 on BACE-1 [1] was in the range of 5 to 50 µM. On BACE-1 [2], this molecule came in with an IC50 of 5 to 65 µM.
Taken in the same sequence, the figures for `N#Cc1cc(-c2cc3c(s2)CCCC32CCSC(N)=N2)ccc1F` (stereo not drawn) [Example 14] were 1 to 5 µM and 1 to 5 µM.
On the same counts, the results for `N#Cc1ccc(F)c(-c2cc3c(s2)CCCC32CCSC(N)=N2)c1` (stereo not drawn) [Example 15] are at most 1 µM and 1 to 5 µM.
With `N#Cc1ccc(Cl)c(-c2cc3c(s2)CCCC32CCSC(N)=N2)c1` (stereo not drawn) [Example 16], the EC50 on BACE-1 [1] is at most 1 µM. Also, the IC50 at BACE-1 [2] lay in the range of 1 to 5 µM.
Regarding `COc1cc(C#N)cc(-c2cc3c(s2)CCCC32CCSC(N)=N2)c1` (stereo not drawn) [Example 17], on BACE-1 [1], the EC50 lay within 1 to 5 µM. This molecule had an IC50 against BACE-1 [2] of 1 to 5 µM.
Turning to `COc1ncc(-c2cc3c(s2)CCCC32CCSC(N)=N2)cc1C#N` (stereo not drawn) [Example 18], on BACE-1 [1], the EC50 lay within 1 to 5 µM. The IC50 on BACE-1 [2] was 5 to 65 µM.
Taken in the same sequence, the figures for `N#Cc1cncc(-c2cc3c(s2)CCCC32CCSC(N)=N2)c1` (stereo not drawn) [Example 19] were 1 to 5 µM and 5 to 65 µM.
Consider `N#Cc1cc(-c2cc3c(s2)CCCC32CCSC(N)=N2)ccn1` (stereo not drawn) [Example 20], for which the EC50 on BACE-1 [1] lay within 1 to 5 µM. For the same molecule, the IC50 on BACE-1 [2] was 5 to 65 µM.
Taken in the same sequence, the figures for `NC1=NC2(CCCc3sc(-c4cccc(-c5ccccc5)c4)cc32)CCS1` (stereo not drawn) [Example 21] were 5 to 50 µM and 1 to 5 µM.
Taken in the same sequence, the figures for `COc1ccc(-c2cc3c(s2)CCCC32CCSC(N)=N2)cc1C#N` (stereo not drawn) [Example 22] were 1 to 5 µM and 5 to 65 µM.
On the same counts, the results for `COCc1cccc(-c2cc3c(s2)CCCC32CCSC(N)=N2)c1` (stereo not drawn) [Example 23] are 1 to 5 µM and 5 to 65 µM.
With `NC1=NC2(CCCc3sc(-c4cccc(OC(F)(F)F)c4)cc32)CCS1` (stereo not drawn) [Example 24], at BACE-1 [1], the EC50 was 5 to 50 µM. Further, the IC50 at BACE-1 [2] lay in the range of 1 to 5 µM.
Taken in the same sequence, the figures for `NC1=NC2(CCCc3sc(-c4cccc(C(F)(F)F)c4)cc32)CCS1` (stereo not drawn) [Example 25] were 5 to 50 µM and 1 to 5 µM.
On the same counts, the results for `NC1=NC2(CCCc3sc(-c4cccc(Oc5ccccc5)c4)cc32)CCS1` (stereo not drawn) [Example 26] are 5 to 50 µM and 1 to 5 µM.
On the same counts, the results for `CC(C)c1cccc(-c2cc3c(s2)CCCC32CCSC(N)=N2)c1` (stereo not drawn) [Example 27] are 5 to 50 µM and 1 to 5 µM.
In the case of `NC1=NC2(CCCc3sc(-c4cccc(Cl)c4)cc32)CCS1` (stereo not drawn) [Example 28], the EC50 on BACE-1 [1] is 5 to 50 µM. This molecule came in with an IC50 against BACE-1 [2] of 1 to 5 µM.
`NC1=NC2(CCCc3sc(-c4ccc(-c5ccccc5)cc4)cc32)CCS1` (stereo not drawn) [Example 29]: the EC50 on BACE-1 [1] lay in the range of 5 to 50 µM. In addition, the IC50 at BACE-1 [2] is 1 to 5 µM.
On the same counts, the results for `NC1=NC2(CCCc3sc(-c4cccc(OCc5ccccc5)c4)cc32)CCS1` (stereo not drawn) [Example 30] are 5 to 50 µM and 1 to 5 µM.
Consider `N#Cc1cccc(-c2cc3c(s2)CCCC32CCSC(N)=N2)n1` (stereo not drawn) [Example 31], for which, on BACE-1 [1], the EC50 is 1 to 5 µM. At BACE-1 [2], this molecule yielded an IC50 of 1 to 5 µM.
In the case of `N#Cc1cc(-c2cc3c(s2)CCCC32CCSC(N)=N2)cc(C(F)(F)F)c1` (stereo not drawn) [Example 32], the half-maximal effective concentration (EC50) on BACE-1 [1] is 5 to 50 µM. On BACE-1 [2], this molecule showed an IC50 of 1 to 5 µM.
On the same counts, the results for `COc1ccc(-c2cccc(-c3cc4c(s3)CCCC43CCSC(N)=N3)c2)cc1` (stereo not drawn) [Example 33] are 5 to 50 µM and 1 to 5 µM.
On the same counts, the results for `N#Cc1cc(Cl)cc(-c2cc3c(s2)CCCC32CCSC(N)=N2)c1` (stereo not drawn) [Example 34] are 1 to 5 µM and 1 to 5 µM.
Taken in the same sequence, the figures for `Cc1cc(C#N)cc(-c2cc3c(s2)CCCC32CCSC(N)=N2)c1` (stereo not drawn) [Example 35] were 1 to 5 µM and 1 to 5 µM.
`NC1=NC2(CCCc3sc(-c4cccc(-c5ccccn5)c4)cc32)CCS1` (stereo not drawn) [Example 36]: the EC50 on BACE-1 [1] lay within 5 to 50 µM. The molecule also came in with an IC50 at BACE-1 [2] of 5 to 65 µM.
Taken in the same sequence, the figures for `CC(C)(C)c1cccc(-c2cc3c(s2)CCCC32CCSC(N)=N2)c1` (stereo not drawn) [Example 37] were 5 to 50 µM and 5 to 65 µM.
On the same counts, the results for `COc1cccc(-c2cccc(-c3cc4c(s3)CCCC43CCSC(N)=N3)c2)c1` (stereo not drawn) [Example 38] are 5 to 50 µM and 1 to 5 µM.
Taken in the same sequence, the figures for `NC1=NC2(CCCc3sc(-c4cccc(CC(F)(F)F)c4)cc32)CCS1` (stereo not drawn) [Example 39] were 5 to 50 µM and 5 to 65 µM.
For `NC1=NC2(CCCc3sc(NC(=O)c4ccc(Br)cn4)cc32)CCS1` (stereo not drawn) [Example 40], the EC50 on BACE-1 [1] lay within 5 to 50 µM. Besides, the IC50 on BACE-1 [2] lay within 5 to 65 µM.
Taken in the same sequence, the figures for `COc1cccc(-c2cccc(-c3cc4c(s3)CC(C)(C)CC43CCSC(N)=N3)c2)c1` (stereo not drawn) [Example 41, 2-(3′-methoxybiphenyl-3-yl)-6,6-dimethyl-5′,6,6′,7-tetrahydro-5H-spiro[benzo[b]thiophene-4,4′-[1,3]thiazin]-2′-amine, Formate Salt] were 5 to 50 µM and 1 to 5 µM.
Consider `COc1ccc(-c2cccc(-c3cc4c(s3)CC(C)(C)CC43CCSC(N)=N3)c2)cc1` (stereo not drawn) [Example 42], for which the concentration giving a half-maximal response (EC50) at BACE-1 [1] fell in the range of 5 to 50 µM. Moreover, the IC50 against BACE-1 [2] is 1 to 5 µM.
In the case of `C[C@H](NC(=O)Cc1cc(F)cc(F)c1)C(=O)N[C@@H]1C(=O)N(C)c2ccccc2-c2ccccc21` [reference compound], the IC50 on BACE-1 [1] (reference inhibitor, inhibition of Aβ1-40 peptide secretion, 30,000 cells per well) worked out at 0.0002 µM.
